Patent US20080319087A1, “Use of Ambroxol for the Treatment of Rhinovirus Infections” (priority 2005, published 2008)
Where a name gives a salt, the structure may show the parent alone.

What was measured:
[1] = tested on: human rhinovirus subtype 14 (HRV 14); assay: plaque-reduction assay, HeLa cells infected with human rhinovirus subtype 14; format: cell-based
Method: For the purpose of the study HeLa cells were inocculated with human rhinovirus subtype 14 (HRV 14), isolated from nasopharyngeal secretions. Ambroxol hydrochloride (AX) was chosen as the compound for antiviral testing. The antiviral activity of the test substance was evaluated in the plaque-reduction assay. To test the effect of AX on rhinovirus replication HeLa cells were infected with a multiplicity of infection (MOI) of 0.0002, without (control for 100% infection) or in the presence of AX at concentrations between 0.3 and 10 μg/ml. Infected cell cultures were cultivated for three days. Inhibition of virus plaques was evaluated microscopically and compared with controls.

HeLa cells = format: cell-based; settings: human, 5 days
Method: As a first step an assay on possible toxic effects of AX was performed by incubating HeLa cells with increasing dilutions of the test substance for 5 days.
Cell morphology was checked using a microscope. In addition, an assay for mitochondrial enzyme activity (MTT-assay) was used to evaluate the vitality of cells. No changes in cell morphology and enzyme activity were found at concentrations of 10 μg AX/ml and below.

influenza A virus = settings: mice infected with influenza A virus; Yang et al., Eur. Resp. J. 19, 952-958 (2002); cited from earlier work

| Compound | inhibition at 0.3 µg/mL ([1]; Human rhinovirus sp., 72 h, 0.3 μg/ml, HeLa cells, HRV 14, MOI 0.0002, three days, average of 6 individual tests, read-out: relative inhibition) [%] | inhibition at 0.6 µg/mL ([1]; Human rhinovirus sp., 72 h, 0.6 μg/ml, HeLa cells, HRV 14, MOI 0.0002, three days, average of 6 individual tests, read-out: relative inhibition) [%] | inhibition at 1.2 µg/mL ([1]; Human rhinovirus sp., 72 h, 1.2 μg/ml, HeLa cells, HRV 14, MOI 0.0002, three days, average of 6 individual tests, read-out: relative inhibition) [%] | inhibition at 2.5 µg/mL ([1]; Human rhinovirus sp., 72 h, 2.5 μg/ml, HeLa cells, HRV 14, MOI 0.0002, three days, average of 6 individual tests, read-out: relative inhibition) [%] | inhibition at 5 µg/mL ([1]; Human rhinovirus sp., 72 h, 5 μg/ml, HeLa cells, HRV 14, MOI 0.0002, three days, average of 6 individual tests, read-out: relative inhibition) [%] | inhibition at 10 µg/mL ([1]; Human rhinovirus sp., 72 h, 10 μg/ml, HeLa cells, HRV 14, MOI 0.0002, three days, average of 6 individual tests, read-out: relative inhibition) [%] | rhinovirus replication ([1]; conclusion from Table 6) | concentrations at which no changes in cell morphology were found (HeLa cells) [μg AX/ml] | concentrations at which no changes in enzyme activity were found (HeLa cells) [μg AX/ml] | survival rate (influenza A virus) |
| --- | --- | --- | --- | --- | --- | --- | --- | --- | --- | --- |
| Nc1c(Br)cc(Br)cc1CN[C@H]1CC[C@H](O)CC1 [Ambroxol hydrochloride] | 9.71 | 14.4 | 34.3 | 36.8 | 63.7 | 70.7 | effectively blocks rhinovirus replication | ≤ 10 | ≤ 10 |  |
| Nc1c(Br)cc(Br)cc1CNC1CCC(O)CC1 (stereo not drawn) [Ambroxol, trans-4-(2-amino-3,5-dibromobenzylamino)-cyclohexanole] |  |  |  |  |  |  |  |  |  | increase the survival rate |
